Like-named read-outs stand apart in the source and are kept apart here.
Target: T1, human GnRH receptor (Homo sapiens, UniProt P30968)
T1 construct: expressed in transfected cells; host or cells: HEK 293 (hGnRH-R/293, from Dr. Stuart Sealfon)
T1 sequence (P30968 1-328): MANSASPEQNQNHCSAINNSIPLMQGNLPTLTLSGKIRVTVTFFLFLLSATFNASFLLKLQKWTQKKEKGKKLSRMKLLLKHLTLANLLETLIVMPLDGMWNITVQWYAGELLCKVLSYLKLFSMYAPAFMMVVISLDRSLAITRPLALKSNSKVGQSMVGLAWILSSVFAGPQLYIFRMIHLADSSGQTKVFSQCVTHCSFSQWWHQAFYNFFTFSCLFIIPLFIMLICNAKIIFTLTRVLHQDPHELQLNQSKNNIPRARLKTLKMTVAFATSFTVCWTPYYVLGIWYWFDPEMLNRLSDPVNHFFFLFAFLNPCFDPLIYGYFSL
Test: Radioligand binding, 125I-GnRH-A displacement, membranes of HEK 293 cells with human GnRH receptor
Conditions: for remaining activity at 10 µM / remaining activity at 1 µM: substrate remaining, closer to zero = closer to 100% inhibition; for remaining activity at 10 µM: 10 uM compound, read-out: S%R 10 uM hGnRHR; for remaining activity at 1 µM: 1 uM compound, read-out: S%R 1 uM hGnRHR; for IC50: read-out: hGnRH IC50
Outline: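 Bound tracer was separated by filtration through polyethyleneimine-soaked GF/C filters and counted by liquid scintillation. IC50 from curve fitting; other species were tested under the same conditions.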

[1] = 1 uM, read-out: % Inhib. @ 1 uM hGnRH
[2] = 1 h, repeat of % Inhib. at 1 uM, read-out: Repeats @ 1 uM hGnRH

`Cc1cc2c(cc1Cc1ccc(C(=O)Nc3ccc(O)cc3)o1)C(C)(C)CCC2(C)C` [Compound 340] showed a remaining activity at 10 µM (1 h) of 28%.

`Cc1cc2c(cc1Cc1ccc(C(=O)N[C@@H](CO)Cc3ccc(O)cc3)o1)C(C)(C)CCC2(C)C` gave an inhibition at 1 µM [1] of -12% and an inhibition at 1 µM [2] of -9%.

For `Cc1cc2c(cc1Cc1ccc(C(=O)Nc3ccc(CCO)cc3)o1)C(C)(C)CCC2(C)C` [Compound 323], the remaining activity at 10 µM (1 h) was 1%.

`Cc1cc2c(cc1Cc1ccc(C(=O)Nc3ccccc3O)o1)C(C)(C)CCC2(C)C` [Compound 342] showed a remaining activity at 10 µM (1 h) of 45%.

`Cc1cc2c(cc1Cc1ccc(C(=O)NCc3cccc(Br)c3)o1)C(C)(C)CCC2(C)C` [Compound 454] showed a remaining activity at 1 µM (1 h) of 36%.

`COc1ccc(OC)c(NC(=O)c2ccc(Cc3cc4c(cc3C)C(C)(C)CCC4(C)C)o2)c1` [Compound 330] showed a remaining activity at 10 µM (1 h) of 10%.

For `Cc1cc2c(cc1Cc1ccc(C(=O)NCCc3ccccc3Oc3ccccc3)o1)C(C)(C)CCC2(C)C` [drawing 1040], the inhibition at 1 µM [1] was -11% and the inhibition at 1 µM [2] was -8%.

Work on `Cc1cc2c(cc1Cc1ccc(C(=O)NCC(O)c3ccccc3)o1)C(C)(C)CCC2(C)C` (stereo not shown) [drawing 1196] yielded an inhibition at 1 µM [1] of 68% and an inhibition at 1 µM [2] of 69%.

With `Cc1cc2c(cc1Cc1ccc(C(=O)NCCc3c[nH]c4ccccc34)o1)C(C)(C)CCC2(C)C` [drawing 1012] the inhibition at 1 µM [1] was 78% and the inhibition at 1 µM [2] was 81%.

For `Cc1cc2c(cc1Cc1ccc(C(=O)NCc3ccc(-c4csnn4)cc3)o1)C(C)(C)CCC2(C)C` [drawing 1013], the inhibition at 1 µM [1] was 87% and the inhibition at 1 µM [2] was 92%.

Work on `Cc1ccc(CCNC(=O)c2ccc(Cc3cc4c(cc3C)C(C)(C)CCC4(C)C)o2)cc1` [Compound 442] yielded a remaining activity at 1 µM (1 h) of 50%.

`Cc1cc2c(cc1Cc1ccc(C(=O)NCc3ccc(F)cc3)o1)C(C)(C)CCC2(C)C` [Compound 426] was tested, and the remaining activity at 1 µM (1 h) was 30%.

`Cc1cc2c(cc1Cc1ccc(C(=O)N3CCN(c4ccccc4)CC3)o1)C(C)(C)CCC2(C)C` [drawing 1121] was tested, and the “% Inhib. @ 1 uM hGnRH” value (1 uM) was −6% and the “Repeats @ 1 uM hGnRH” value (repeat of % Inhib. at 1 uM) was 6.

Work on `Cc1cc2c(cc1Cc1ccc(C(=O)NCC3CN(Cc4ccccc4)CCO3)o1)C(C)(C)CCC2(C)C` (stereo not shown) [Compound 59] yielded an IC50 of 0.98 µM.

`Cc1cc2c(cc1Cc1ccc(C(=O)NCCc3c[nH]cn3)o1)C(C)(C)CCC2(C)C` [drawing 1031] was tested, and the inhibition at 1 µM [1] was 22% and the inhibition at 1 µM [2] was 28%.

For `Cc1cc2c(cc1Cc1ccc(C(=O)Nc3c(O)cccc3OC(=O)c3ccc(Cc4cc5c(cc4C)C(C)(C)CCC5(C)C)o3)o1)C(C)(C)CCC2(C)C` [Compound 193], the IC50 was greater than 10 µM.

Compound `Cc1cc2c(cc1Cc1ccc(C(=O)NCc3ccc(CN(C)C)cc3)o1)C(C)(C)CCC2(C)C` [Compound 166] has an IC50 of 0.26 µM.

`CCOC(=O)N1CCC(NC(=O)c2ccc(Cc3cc4c(cc3C)C(C)(C)CCC4(C)C)o2)CC1` gave an inhibition at 1 µM [1] of 15% and an inhibition at 1 µM [2] of 16%.

`Cc1cc2c(cc1Cc1ccc(C(=O)N3CCN(c4ccccc4C#N)CC3)o1)C(C)(C)CCC2(C)C` was tested, and the inhibition at 1 µM [1] was -5% and the inhibition at 1 µM [2] was 62%.

Compound `COc1cccc(C)c1NC(=O)c1ccc(Cc2cc3c(cc2C)C(C)(C)CCC3(C)C)o1` [Compound 61] has an IC50 of 0.76 µM.

Compound `COc1ccc(OC)c(OC)c1Cc1ccc(C(=O)Nc2c(OC)cccc2OC)o1` [Compound 211] has an IC50 of 1.32 µM.

`COC(CNC(=O)c1ccc(Cc2cc3c(cc2C)C(C)(C)CCC3(C)C)o1)OC` [Compound 131] gave an IC50 of 0.6 µM.

With `Cc1cc2c(cc1Cc1ccc(C(=O)Nc3cccc4ncccc34)o1)C(C)(C)CCC2(C)C` [Compound 346] the remaining activity at 10 µM (1 h) was -14%.

Work on `COc1cc(C)c(Cl)c(C)c1Cc1ccc(C(=O)NCc2nc3ccccc3[nH]2)o1` [Compound 234] yielded an IC50 greater than 10 µM.

In the case of `COc1cc(OC)c(NC(=O)c2ccc(Cc3cc(C4CCCCC4)ccc3C)o2)c(OC)c1` [Compound 304], the IC50 is reported as 0.303 µM.

Compound `CCc1ccc(C)nc1NC(=O)c1ccc(Cc2cc3c(cc2C)C(C)(C)CCC3(C)C)o1` [Compound 375] has a remaining activity at 10 µM (1 h) of 16%.

Compound `COc1ccc(NC(=O)c2ccc(Cc3cc4c(cc3C)C(C)(C)CCC4(C)C)o2)cc1F` [Compound 381] has a remaining activity at 10 µM (1 h) of 34%.

With `COc1cccc(OC)c1NC(=O)c1ccc(Cc2cc(C(C)C)c(O)cc2C)o1` [Compound 303] the IC50 was 0.32 µM.

`Cc1cc2c(cc1Cc1ccc(C(=O)Nc3ccc(CC(=O)O)cc3)o1)C(C)(C)CCC2(C)C` [Compound 33] showed an IC50 of 5.3 µM.

In the case of `COc1cc(OC)c(OC)cc1Cc1ccc(C(=O)Nc2c(OC)cccc2OC)o1` [Compound 235], the IC50 is reported as 3.72 µM.

In the case of `COC(=O)c1cc(OC)c(OC)c(OO)c1NC(=O)c1ccc(Cc2cc3c(cc2C)C(C)(C)CCC3(C)C)o1` [Compound 386], the remaining activity at 10 µM (1 h) is reported as 27%.

Work on `Cc1cc2c(cc1Cc1ccc(C(=O)Nc3ccccc3CCO)o1)C(C)(C)CCC2(C)C` [Compound 327] yielded a remaining activity at 10 µM (1 h) of 0%.

For `Cc1cc2c(cc1Cc1ccc(C(=O)NC(C)(C)c3ccccc3)o1)C(C)(C)CCC2(C)C`, the inhibition at 1 µM [1] was 28% and the inhibition at 1 µM [2] was 45%.

With `Cc1cc2c(cc1Cc1ccc(C(=O)NCc3ccc(Cl)cc3)o1)C(C)(C)CCC2(C)C` [Compound 409] the remaining activity at 1 µM (1 h) was 32%.

`COc1cc(OC)c(NC(=O)c2ccc(Cc3cc(OC)cc(OC)c3OC)o2)c(OC)c1` [Compound 208] showed an IC50 of 8.62 µM.

For `Cc1cc2c(cc1Cc1ccc(C(=O)NC(C)(C)Cc3ccc(F)cc3)o1)C(C)(C)CCC2(C)C`, the inhibition at 1 µM [1] was 21% and the inhibition at 1 µM [2] was 22%.

With `Cc1cc2c(cc1Cc1ccc(C(=O)NCCc3ccc(F)cc3)o1)C(C)(C)CCC2(C)C` [drawing 1198] the inhibition at 1 µM [1] was 45% and the inhibition at 1 µM [2] was 45%.

In the case of `COc1cc(OC)nc(NCC2CCC(CNC(=O)c3ccc(Cc4cc5c(cc4C)C(C)(C)CCC5(C)C)o3)CC2)n1` (stereo not shown) [Compound 71], the IC50 is reported as 2 µM.

`Cc1cc2c(cc1Cc1ccc(C(=O)N(CCC3CCCN3C)Cc3ccc(Cl)cc3)o1)C(C)(C)CCC2(C)C` (stereo not shown) gave an inhibition at 1 µM [1] of -22% and an inhibition at 1 µM [2] of -4%.

`Cc1cnc(CNC(=O)c2cccc(Cc3cc4c(cc3C)C(C)(C)CCC4(C)C)c2)cn1` [Compound 37.5] showed an IC50 of 7.8 µM.

`Cc1cc2c(cc1Cc1ccc(C(=O)Nc3cccc(CO)c3)o1)C(C)(C)CCC2(C)C` [Compound 121] showed an IC50 of 1.1 µM.

For `COc1ccccc1CC(C)N(C)C(=O)c1ccc(Cc2cc3c(cc2C)C(C)(C)CCC3(C)C)o1` (stereo not shown), the inhibition at 1 µM [1] was -7% and the inhibition at 1 µM [2] was 15%.

In the case of `Cc1cc2c(cc1Cc1ccc(C(=O)NCc3cccnc3)o1)C(C)(C)CCC2(C)C` [Compound 400], the remaining activity at 1 µM (1 h) is reported as 28%.

`Cc1cc2c(cc1Cc1ccc(C(=O)NC(C)c3ccccc3)o1)C(C)(C)CCC2(C)C` (stereo not shown) [drawing 1138] showed an inhibition at 1 µM [1] of 53% and an inhibition at 1 µM [2] of 58%.

`Cc1cc(NCc2cccc(CNC(=O)c3ccc(Cc4cc5c(cc4C)C(C)(C)CCC5(C)C)o3)c2)nc(N)n1` [Compound 144] gave an IC50 of 0.23 µM.

Work on `Cc1cc2c(cc1Cc1ccc(C(=O)NCCc3ccc4c(c3)OCO4)o1)C(C)(C)CCC2(C)C` [drawing 1055] yielded an inhibition at 1 µM [1] of 51% and an inhibition at 1 µM [2] of 56%.

Work on `Cc1cc2c(cc1Cc1ccc(C(=O)NCC3CCN(C(=N)N)CC3)o1)C(C)(C)CCC2(C)C` [drawing 1063] yielded an inhibition at 1 µM [1] of 26% and an inhibition at 1 µM [2] of 87%.

In the case of `Cc1cc2c(cc1Cc1ccc(C(=O)Nc3ccc4[nH]c(-c5ccccn5)nc4c3)o1)C(C)(C)CCC2(C)C` [drawing 1002], the inhibition at 1 µM [1] is reported as 13% and the inhibition at 1 µM [2] is reported as 8%.

In the case of `COc1ccccc1NC(=O)c1ccc(Cc2cc3c(cc2C)C(C)(C)CCC3(C)C)o1` [Compound 358], the remaining activity at 10 µM (1 h) is reported as 9%.

`Cc1cc2c(cc1Cc1ccc(C(=O)NC3CCc4ccccc43)o1)C(C)(C)CCC2(C)C` (stereo not shown) [drawing 1129] was tested, and the inhibition at 1 µM [1] was 38% and the inhibition at 1 µM [2] was 45%.

Work on `COc1cc(CCNC(=O)c2ccc(Cc3cc4c(cc3C)C(C)(C)CCC4(C)C)o2)cc(OC)c1` [drawing 1148] yielded an inhibition at 1 µM [1] of 44% and an inhibition at 1 µM [2] of 48%.

Compound `COc1cc(CCNC(=O)c2ccc(Cc3cc4c(cc3C)C(C)(C)CCC4(C)C)o2)cc(OC)c1O` [drawing 1061] has an inhibition at 1 µM [1] of 44% and an inhibition at 1 µM [2] of 49%.

`COC(=O)c1ccc(NC(=O)c2ccc(Cc3cc4c(cc3C)C(C)(C)CCC4(C)C)o2)c(O)c1` [Compound 393] showed a remaining activity at 10 µM (1 h) of 44%.

Work on `Cc1cc2c(cc1Cc1ccc(C(=O)Nc3cccc(O)c3)o1)C(C)(C)CCC2(C)C` [Compound 345] yielded a remaining activity at 10 µM (1 h) of 40%.

`Cc1cc2c(cc1Cc1ccc(C(=O)NCc3cccc(CNc4ncnc5c(C)csc45)c3)o1)C(C)(C)CCC2(C)C` [Compound 149] was tested, and the IC50 was 0.36 µM.

Compound `Cc1cc2c(cc1Cc1ccc(C(=O)NCCc3ccc(O)c(O)c3)o1)C(C)(C)CCC2(C)C` has an inhibition at 1 µM [1] of -10% and an inhibition at 1 µM [2] of -3%.

`CCOc1cccc(O)c1NC(=O)c1ccc(Cc2cc3c(cc2C)C(C)(C)CCC3(C)C)o1` [Compound 192] showed an IC50 of 0.235 µM.

`Cc1cc2c(cc1Cc1ccc(C(=O)NN3C(=O)c4ccccc4C3=O)o1)C(C)(C)CCC2(C)C` gave an inhibition at 10 µM (repeat, read-out: Repeats @ 10 uM hGnRH (% inhib.)) of -20% and an inhibition at 10 µM (read-out: % inhib. @ 10 uM hGnRH) of -15%.

Compound `Cc1cc2c(cc1Cc1ccc(C(=O)NCc3ccccc3Br)o1)C(C)(C)CCC2(C)C` [Compound 449] has a remaining activity at 1 µM (1 h) of 42%.

For `Cc1cc2c(cc1Cc1ccc(C(=O)NC(c3ccccc3)c3ccccc3)o1)C(C)(C)CCC2(C)C` [drawing 1071], the “% Inhib. @ 1 uM hGnRH” value (1 uM) was −6% and the “Repeats @ 1 uM hGnRH” value (repeat of % Inhib. at 1 uM) was 2.

In the case of `Cc1cc2c(cc1Cc1ccc(C(=O)NCc3cccc(CNc4nccc(C(F)(F)F)n4)c3)o1)C(C)(C)CCC2(C)C` [Compound 143], the IC50 is reported as 1.87 µM.
